Data: paper PMC4735493, “The Biological Effects of Bilirubin Photoisomers” (PLoS ONE, 2016)
Like-named read-outs stand apart in the source and are kept apart here. Marks after values point to notes of the source that are not given here. Blank lines part the entries; values can stand above or below the molecule they belong to.

What was measured:
[1] = Stability of pigments in the incubation medium by HPLC
Procedure: The HPLC analyses were performed using an Agilent 1200 system (CA, USA) with a diode-array detector. […] The mobile phase consisted of 0.1 M di-n-octylamine acetate in methanol and water; the stationary phase was represented by a Poroshell 120, SB-C18 column (4.6 x 100 mm, 2.7 μm; Agilent, CA, USA). Samples were prepared by mixing 20 μl of bilirubin solution with 180 μl of ice-cold 0.1 M di-n-octylamine acetate in methanol, then vortexed and centrifuged to eliminate proteins. Twenty μl of the prepared sample was injected onto the column.
To check the stability of bilirubin PI, concentrations of bilirubin IXα, and EZ/ZE-bilirubins as well as Z-lumirubin after 1 and 24 hrs in the incubation medium were analysed by HPLC method (see above).

[2] = molecular target: T1, human serum albumin (HSA) (Homo sapiens, UniProt P02768); test: Binding constant by fluorescence quenching of intrinsic Trp fluorescence
Procedure: Thus, the binding constant for bilirubin and lumirubin to HSA was determined by quenching of the intrinsic Trp fluorescence. […] F0 was the fluorescence of HSA without a quencher, F the fluorescence of HSA with a quencher, CL was the quencher concentration, and CP was the concentration of HSA. The effect of cooperative binding of lumirubin and bilirubin was also studied, and the results were compared to the Ka obtained in the systems with biliverdin and gossypol, which served as a displacing agent of bilirubin from HSA [31, 32].

[3] = molecular target: T1, human serum albumin (HSA); test: Characterization of albumin binding sites by circular dichroism (CD) spectroscopy with marker ligands
Source text: CD spectra were obtained using a J-810 spectropolarimeter (Jasco, Japan) and analyzed as described elsewhere. […] For determination of the subdomain for lumirubin binding two compounds were used, hemin and bilirubin, as marker ligands for subdomain IB and IIA, respectively.

MDR1 = test: Gene expression by real-time PCR: MDR1; type: cell-based, human; conditions: SH-SY5Y; bilirubin 24 μM, PI 15%; median (IQ range), n = 5
Procedure: (§1) The effect of bilirubin and bilirubin PI (24 μM bilirubin (corresponding to 140 nM Bf), 15% bilirubin PI, and a mixture of bilirubin and 15% PI) on the expression of genes involved in heme catabolism and in the regulation of the cell cycle (Table 1) was investigated in SH-SY5Y cells exposed to pigments for 1 and 24 hrs, respectively. Briefly, total RNA was isolated in TriReagent (Sigma-Aldrich, St Louis, MO, USA) according to the manufacture's protocol and stored at -80°C until analysis. RNA quantity and purity were evaluated spectrophotometrically at 260 nm, and RNA integrity was evaluated by agarose gel electrophoresis. Retrotranscription of total RNA (1 μg) was performed with an iScript cDNA Synthesis Kit (Bio-Rad Laboratories, Hercules, CA, USA) according to the manufacturer's instructions. The final cDNA was conserved at -20°C until used. […] The quantitative analysis of gene expression was performed by real-time PCR. […] The relative quantification was made using iCycler iQ software, version 3.1 (Bio-Rad Laboratories, Hercules, CA, USA), by the ΔΔCt method, taking into account the efficiencies of the individual's genes, and normalizing the results to the two housekeeping genes. […] The results are expressed as the mean ± SD.

Cyclin D1 = test: Gene expression by real-time PCR: Cyclin D1; type: cell-based, human; conditions: SH-SY5Y; bilirubin 24 μM, PI 15%; median (IQ range), n = 5
Procedure: (§2) Briefly, total RNA was isolated in TriReagent (Sigma-Aldrich, St Louis, MO, USA) according to the manufacture's protocol and stored at -80°C until analysis. RNA quantity and purity were evaluated spectrophotometrically at 260 nm, and RNA integrity was evaluated by agarose gel electrophoresis. Retrotranscription of total RNA (1 μg) was performed with an iScript cDNA Synthesis Kit (Bio-Rad Laboratories, Hercules, CA, USA) according to the manufacturer's instructions. The final cDNA was conserved at -20°C until used. The primers for the targeted genes and the two housekeeping genes [hypoxanthine-guanine phosphoribosyltransferase (Hprt1) and glyceraldehydes 3-phosphate dehydrogenase (Gapdh)] were designed using Beacon Designer 2.0 software (PREMIER Biosoft International, Palo Alto, CA, USA). The quantitative analysis of gene expression was performed by real-time PCR. […] The relative quantification was made using iCycler iQ software, version 3.1 (Bio-Rad Laboratories, Hercules, CA, USA), by the ΔΔCt method, taking into account the efficiencies of the individual's genes, and normalizing the results to the two housekeeping genes. […] The results are expressed as the mean ± SD.

SH-SY5Y cells = test: Cell cycle phase by flow cytometry (propidium iodide); type: cell-based, human; conditions: bilirubin 24 μM, PI 15%, 1 and 24 hrs exposure, data not shown
Procedure: After centrifugation (310 x g; RT; 6 min), the sediments were re-suspended in 1 ml of staining solution in PBS containing 0.1% v/v Triton X-100, 20 μg/ml propidium iodide (PI), and 0.2 mg/ml DNAse free RNaseA. Samples were incubated in the dark for 30 min at RT, and subjected to FACS analysis (cytometer BD FACSCalibur TM; and CellQuest software, BD Biosciences, San Jose, CA). Data were collected for 10,000 events per sample.

MRP1 = test: Gene expression by real-time PCR: MRP1; type: cell-based, human; conditions: SH-SY5Y; bilirubin 24 μM, PI 15%; median (IQ range), n = 5
Procedure: as §1

[4] = tested on: SH-SY5Y human neuroblastoma cell line; test: Cell viability (CellTiter-Glo and MTT); type: cell-based
Procedure: The SH-SY5Y human neuroblastoma cell line was used for the in vitro studies (ATCC, Manassas, VA, USA). Authentication of the cell line was confirmed by independent laboratory (Generi Biotech, Czech Republic). The cells were tested for Mycoplasma contamination using the MycoAlert luminescence test (Lonza, Switzerland). Cells were cultured in a mixture of MEM Eagle and Ham’s F12 media (1:1, v/v), containing 15% of fetal bovine serum, in 75 cm^2 culture flasks, at 37°C, in a 5% CO2 atmosphere. For functional tests, cells were seeded at a concentration of 50,000 cells per 1 cm^2.
The effect of bilirubin (24 μM), pure bilirubin PI (5%, 15%, and 30% of bilirubin PI in complete culture media), and the combination of bilirubin with bilirubin PI on cell viability was analyzed by both MTT (Sigma, Germany) as well as by luminescent CellTiter-Glo (Promega, USA) tests, using a Sunrise Microplate Reader (Tecan, Austria) and Synergy 2 Multi-mode Microplate Reader (BioTek, USA), respectively.

heme oxygenase (HMOX) = test: Heme oxygenase activity determination (CO by gas chromatography); type: cell-based, human; conditions: SH-SY5Y; data not shown
Procedure: The activity of heme oxygenase (HMOX) was measured as described previously. In brief, culture media harvested from SH-SY5Y batches were added to CO-free, septum-sealed vials. CO released into the vial headspace was quantified using gas chromatography with a reduction gas analyzer (Peak Laboratories, Mountain View, CA, USA).

HMOX1 = test: Gene expression by real-time PCR: HMOX1; type: cell-based, human; conditions: SH-SY5Y; bilirubin 24 μM, PI 15%; median (IQ range), n = 5; 1 hr exposure
Procedure: as §2

HMOX2 = test: Gene expression by real-time PCR: HMOX2; type: cell-based, human; conditions: SH-SY5Y; bilirubin 24 μM, PI 15%; median (IQ range), n = 5; 1 hr exposure
Procedure: as §2

BLVRA = test: Gene expression by real-time PCR: BLVRA; type: cell-based, human; conditions: SH-SY5Y; bilirubin 24 μM, PI 15%; median (IQ range), n = 5; 1 hr exposure
Procedure: as §2

Cyclin E = test: Gene expression by real-time PCR: Cyclin E; type: cell-based, human; conditions: SH-SY5Y; bilirubin 24 μM, PI 15%; median (IQ range), n = 5
Procedure: as §2

T1 sequence (P02768 25-609): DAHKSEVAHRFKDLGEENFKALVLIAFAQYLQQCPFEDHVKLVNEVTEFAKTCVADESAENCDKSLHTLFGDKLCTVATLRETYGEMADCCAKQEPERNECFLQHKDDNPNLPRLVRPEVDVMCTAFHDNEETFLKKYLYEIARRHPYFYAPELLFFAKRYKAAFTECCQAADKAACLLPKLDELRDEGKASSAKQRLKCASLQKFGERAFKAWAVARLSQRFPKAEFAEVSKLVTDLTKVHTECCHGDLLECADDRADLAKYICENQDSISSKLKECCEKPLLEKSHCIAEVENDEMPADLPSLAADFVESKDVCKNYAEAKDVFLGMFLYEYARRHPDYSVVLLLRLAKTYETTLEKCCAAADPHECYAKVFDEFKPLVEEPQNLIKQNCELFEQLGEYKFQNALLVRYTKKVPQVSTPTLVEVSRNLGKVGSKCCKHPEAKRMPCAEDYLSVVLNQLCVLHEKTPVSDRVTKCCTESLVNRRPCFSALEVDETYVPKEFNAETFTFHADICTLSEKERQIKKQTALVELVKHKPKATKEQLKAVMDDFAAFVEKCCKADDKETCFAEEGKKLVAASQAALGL

Concentration remaining after 24 hrs in the incubation medium [1]: 31%
Kd ([2]; ligand bound to HSA alone, fluorescence quenching, read-out: Ka, binding constant for the ligand-HSA complex): 1080 nM
Localization of binding site on HSA ([3]; marker ligands hemin (IB) and bilirubin (IIA), molar ratio 1/1/1): subdomain IB
Number of binding sites on HSA ([3]; pigment/HSA 1/1, 1.5 x 10^-5 mol/L, PBS pH 7.4): one binding site
Structure (SMILES): C=CC1=C(C)/C(=C/c2[nH]c(CC3=C(CCC(=O)O)C4(C)CC=C5C(=CC4=N3)NC(=O)C5C)c(CCC(=O)O)c2C)NC1=O (stereo not shown) [lumirubin, Z-Lumirubin IXα]
Effect on bilirubin binding to HSA (CD signal) ([3]; both bilirubin and hemin bound to HSA, molar ratio 1/1/1): moderately affects bilirubin binding to HSA

Structure (SMILES): C=CC1=C(C)/C(=C/c2[nH]c(Cc3[nH]c(/C=C4\NC(=O)C(C)=C4C=C)c(C)c3CCC(=O)O)c(CCC(=O)O)c2C)NC1=O [bilirubin, Z,Z-Bilirubin IXα]
MDR1 mRNA expression (MDR1): 54.9 (35–84) % of control
Cyclin D1 mRNA expression (Cyclin D1): 71.8 (64–157) % of control
Effect on cell cycle progression (SH-SY5Y cells): no effect on the cell cycle progression
MRP1 mRNA expression (MRP1): 76.3 (71–90) % of control
Effect on cell viability, short-term exposure ([4]; 60 min exposure, data not shown): did not have any effect on cell viability
Effect on cell viability, 24 hr ([4]; 24 hr, bilirubin 24 μM, PI up to 30%, n = 7): significantly reduced
Effect on cell viability, 48 hr ([4]; 48 hr, bilirubin 24 μM, PI up to 30%, n = 4): significantly reduced
Effect on HMOX activity (heme oxygenase (HMOX)): not translated onto increase of HMOX activity
Stability after 24 hrs in the incubation medium [1]: stable
Kd [2]: 5.56 nM
Ka, binding constant bilirubin-(HSA-biliverdin) ([2]; bilirubin binding to HSA in presence of biliverdin): (1.1±0.4)·10^8 M^-1
Ka, binding constant bilirubin-(HSA-gossypol) ([2]; bilirubin binding to HSA in presence of gossypol (displacer)): (1.4±0.2)·10^5 M^-1
Ka, binding constant bilirubin-(HSA-lumirubin) ([2]; bilirubin binding to HSA in presence of lumirubin): (8.7±1.3)·10^7 M^-1
HMOX1 mRNA expression (HMOX1): 232.2 (197–240) ^* % of control
HMOX2 mRNA expression (HMOX2): 130.3 (129–166) ^* % of control
BLVRA mRNA expression (BLVRA): 142.9 (109–179) % of control
Cyclin E mRNA expression (Cyclin E): 78.9 (50–126) % of control
